Data published in ChEMBL document CHEMBL5316378, “DNA-Encoded Macrocyclic Peptide Libraries Enable the Discovery of a Neutral MDM2-p53 Inhibitor” (ACS Med Chem Lett, 2023).
pIC50: −log10 of the molar value.

Experiments:
[1] = biological target: T1, E3 ubiquitin-protein ligase Mdm2 (Homo sapiens, UniProt Q00987); experiment: Displacement of FAM labeled p53 fragment from human MDM2 (1 to 116 residues) incubated for 1 hrs by fluorescence polarization assay
[2] = Displacement of FAM labeled PMI from human MDM2 (1 to 114 residues) by fluorescence polarization assay
[3] = biological target: T2, Protein Mdm4 (Homo sapiens, UniProt O15151); experiment: Inhibition of human MDM4 (1 to 116 residues) incubated for 1 hrs by fluorescence polarization assay
T2 sequence (O15151 whole entry): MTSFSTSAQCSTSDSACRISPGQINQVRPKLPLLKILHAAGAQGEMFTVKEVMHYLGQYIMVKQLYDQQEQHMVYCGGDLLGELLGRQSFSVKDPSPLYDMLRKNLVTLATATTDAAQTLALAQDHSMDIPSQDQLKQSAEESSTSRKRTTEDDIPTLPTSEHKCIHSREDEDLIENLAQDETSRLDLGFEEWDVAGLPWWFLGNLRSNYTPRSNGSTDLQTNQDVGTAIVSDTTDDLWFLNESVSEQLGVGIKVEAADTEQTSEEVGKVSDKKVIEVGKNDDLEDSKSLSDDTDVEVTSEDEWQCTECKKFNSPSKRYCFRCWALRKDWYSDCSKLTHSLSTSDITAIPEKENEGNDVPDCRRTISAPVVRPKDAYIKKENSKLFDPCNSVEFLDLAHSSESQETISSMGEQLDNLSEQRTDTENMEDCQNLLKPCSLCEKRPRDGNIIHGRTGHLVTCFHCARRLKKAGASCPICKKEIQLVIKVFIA

[4] = biological target: T1, E3 ubiquitin-protein ligase Mdm2; experiment: Inhibition of human MDM2 incubated for 1 hrs by TR-FRET assay
[5] = system: RS4-11; experiment: Anticancer activity against human RS4-11 cells assessed as cell viability incubated for 3 days by CellTiterGlo assay; assay type: functional, cell-based; settings: RS4-11, 72 h
[6] = biological target: Tumour suppressor p53/oncoprotein Mdm2 (Homo sapiens, UniProt Q00987); experiment: Inhibition of human MDM2 to p53 (unknown origin) protein protein interaction; assay type: protein assay
Tumour suppressor p53/oncoprotein Mdm2, sequence (P04637 whole entry): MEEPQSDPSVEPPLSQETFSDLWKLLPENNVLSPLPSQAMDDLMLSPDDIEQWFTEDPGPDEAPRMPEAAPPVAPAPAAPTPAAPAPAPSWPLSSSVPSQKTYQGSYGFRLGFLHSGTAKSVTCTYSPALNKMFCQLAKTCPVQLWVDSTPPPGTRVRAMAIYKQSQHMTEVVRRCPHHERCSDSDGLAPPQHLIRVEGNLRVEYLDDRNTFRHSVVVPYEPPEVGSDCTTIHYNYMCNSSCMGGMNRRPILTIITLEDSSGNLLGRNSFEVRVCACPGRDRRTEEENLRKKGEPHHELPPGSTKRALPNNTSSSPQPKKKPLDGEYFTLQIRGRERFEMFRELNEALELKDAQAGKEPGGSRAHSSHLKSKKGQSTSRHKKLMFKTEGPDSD
Tumour suppressor p53/oncoprotein Mdm2, sequence (Q00987 whole entry): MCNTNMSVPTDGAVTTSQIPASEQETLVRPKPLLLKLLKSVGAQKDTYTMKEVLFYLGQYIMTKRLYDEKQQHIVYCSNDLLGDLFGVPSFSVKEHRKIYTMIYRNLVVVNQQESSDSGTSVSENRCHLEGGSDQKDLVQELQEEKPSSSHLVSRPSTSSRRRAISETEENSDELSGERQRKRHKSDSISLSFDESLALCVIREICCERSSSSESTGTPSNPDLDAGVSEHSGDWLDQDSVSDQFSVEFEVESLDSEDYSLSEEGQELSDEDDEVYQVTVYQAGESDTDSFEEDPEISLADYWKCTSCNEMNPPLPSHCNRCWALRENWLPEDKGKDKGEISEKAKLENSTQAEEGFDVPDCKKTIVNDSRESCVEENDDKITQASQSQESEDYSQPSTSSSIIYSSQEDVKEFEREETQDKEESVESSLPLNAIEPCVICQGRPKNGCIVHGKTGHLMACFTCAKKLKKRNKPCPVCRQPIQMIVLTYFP

T1 sequence (Q00987 whole entry, the tested form may be a part): as the sequence (Q00987 whole entry) above

Structure (SMILES)	pIC50 [1]	pIC50 [2]	pIC50 [3]	pIC50 [4]	pIC50 [5]	pIC50 [6]
CC(C)[C@@H]1NC(=O)Cn2cc(nn2)CC(C(N)=O)NC(=O)[C@@H]2C[C@@H](CN2C(=O)c2ccccc2)NC(=O)[C@H](Cc2cccc(C(F)(F)F)c2)NC(=O)[C@@H](C(C)C)CNC(=O)CNC(=O)[C@H](Cc2ccccc2)NC(=O)[C@H](Cc2c[nH]c3ccccc23)NC1=O (stereo partly specified)	7.05	5.70				
CC(C)[C@@H]1NC(=O)Cn2cc(nn2)C[C@H](C(N)=O)NC(=O)[C@@H]2C[C@@H](CN2C(=O)c2ccccc2)NC(=O)[C@H](Cc2cccc(C(F)(F)F)c2)NC(=O)[C@@H](C(C)C)CNC(=O)CNC(=O)[C@H](Cc2ccccc2)NC(=O)[C@H](Cc2c[nH]c3ccccc23)NC1=O			8.05	8.05	< 4.30	8.05
CC[C@H](C)[C@@H]1NC(=O)[C@H](C(C)C)NC(=O)Cn2cc(nn2)CC(C(N)=O)NC(=O)[C@@H](Cc2ccsc2)NC(=O)[C@H](Cc2ccc(Cl)cc2)NC(=O)C[C@@H](C(=O)O)NC(=O)[C@H](CCSC)NC(=O)[C@H](CC(=O)O)NC1=O (stereo partly specified)	5.09	4.77				
CC(C)[C@@H]1NC(=O)Cn2cc(nn2)C[C@@H](C(N)=O)NC(=O)[C@@H]2C[C@@H](CN2C(=O)c2ccccc2)NC(=O)[C@H](Cc2cccc(C(F)(F)F)c2)NC(=O)[C@@H](C(C)C)CNC(=O)CNC(=O)[C@H](Cc2ccccc2)NC(=O)[C@H](Cc2c[nH]c3ccccc23)NC1=O			7.37	7.37	< 4.30	
